pEC50: −log10 of the molar value. Read-outs that look alike come from different tables or passages of the source.
Legend:
S1P1 = S1P1 (Homo sapiens (Human), UniProt P21453); assay: S1P1 agonist assay (Ec50 S1P1Ag); assay type: cell-based
Description: The exact dosage will depend upon the activity of the compound, mode of administration, on the therapy desired, form in which administered, the subject to be treated and the body weight of the subject to be treated, and the preference and experience of the physician or veterinarian in charge. S1P1 agonist bioactivity of the compounds of the invention can be determined by use of an in vitro assay system which measures the activation of S1P1, which can be expressed as EC50 values, as are well known in the art inhibitors of the invention can be determined by the method described in the Examples.

S1P3 = S1P3 (Homo sapiens (Human), UniProt Q99500); assay: S1P3 agonist assay (Ec50 S1P3Ag); assay type: cell-based; details: read-out: Ec 50 (S1P3Ag); for EC50: unit μM
Sequence of S1P3 (Q99500 whole entry, species assumed): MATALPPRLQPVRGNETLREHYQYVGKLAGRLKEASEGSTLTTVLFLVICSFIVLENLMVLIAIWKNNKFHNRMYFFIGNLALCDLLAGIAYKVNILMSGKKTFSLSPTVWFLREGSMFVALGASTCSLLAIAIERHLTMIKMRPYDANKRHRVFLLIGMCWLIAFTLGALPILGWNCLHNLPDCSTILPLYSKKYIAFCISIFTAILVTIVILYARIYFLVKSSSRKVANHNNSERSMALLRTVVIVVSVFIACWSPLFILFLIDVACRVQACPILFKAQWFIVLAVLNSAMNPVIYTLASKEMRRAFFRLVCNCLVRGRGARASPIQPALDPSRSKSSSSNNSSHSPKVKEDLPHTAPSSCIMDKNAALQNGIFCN

Sequence of S1P1 (P21453 whole entry): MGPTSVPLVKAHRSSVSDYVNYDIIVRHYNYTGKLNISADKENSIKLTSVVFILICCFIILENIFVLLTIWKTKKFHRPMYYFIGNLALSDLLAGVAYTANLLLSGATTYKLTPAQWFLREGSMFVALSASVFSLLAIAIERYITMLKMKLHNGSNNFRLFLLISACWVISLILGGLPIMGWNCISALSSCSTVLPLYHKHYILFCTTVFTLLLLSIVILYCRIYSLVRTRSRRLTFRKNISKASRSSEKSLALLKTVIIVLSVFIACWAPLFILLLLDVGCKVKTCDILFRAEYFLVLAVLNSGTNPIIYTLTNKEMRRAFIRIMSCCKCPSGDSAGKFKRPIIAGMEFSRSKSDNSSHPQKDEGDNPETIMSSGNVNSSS

SMILES	EC50 (S1P1; unit μM/uM) [µM]	pEC50 (S1P3)	pEC50 (S1P1)	EC50 (S1P3) [µM]
FC(F)(F)c1ccc(-c2noc(Cc3ccncc3)n2)cc1 [Compound 5]	4.1	5.29		
FC(F)(F)c1ccc(-c2noc(-c3ccnc(Cl)c3)n2)cc1 [Compound 7]		6.11	6.57	
CCCOc1ccc(-c2nc(-c3ccncc3)no2)cc1 [Compound 10]		5.48	6.61	
CC(C)Cc1ccc(C(C)c2nc(-c3ccc(S(N)(=O)=O)cc3)no2)cc1 (centres unmarked) [Compound 16]		5.92	8.48	
COc1cc(-c2noc(-c3ccnc(C)c3)n2)ccc1C [Compound 23]		5.46	5.48	
CCOc1ccc(-c2nc(-c3ccncc3)no2)cc1OCC [Compound 35]		6.18	8.43	
CCOc1ccc(-c2nc(-c3ccnc(N)c3)no2)cc1OCC [Compound 36]		6.41	8.77	
CCOc1cc(-c2nc(-c3ccncc3)no2)ccc1OC [Compound 50]		5.57	7.19	
CC(C)(C)c1cc(-c2nc(-c3ccncc3)no2)cc(C(C)(C)C)c1 [Compound 53]		6.49	6.81	
COc1ccc(-c2nc(-c3ccncc3)no2)cc1OC1CCCC1 [Compound 54]		6.49	7.15	
CC(C)Cc1ccc(C(C)c2nc(-c3ccncc3)no2)cc1 (centres unmarked) [Compound 55]		6.35	6.95	
CCOc1ccc(-c2nc(-c3cncc(C)c3)no2)cc1OCC [Compound 58]		5.47	7.93	
FC(F)(F)c1cc(-c2nc(-c3ccncc3)no2)ccc1-c1ccccc1 [Compound 59]		5.25	7.97	
Cc1cnccc1-c1noc(-c2ccc(-c3ccccc3)c(C(F)(F)F)c2)n1 [Compound 60]		6.10	9.00	
Nc1cc(-c2noc(-c3ccc(-c4ccccc4)c(C(F)(F)F)c3)n2)ccn1 [Compound 61]		5.88	9.11	
Cc1cncc(-c2noc(-c3ccc(-c4ccccc4)c(C(F)(F)F)c3)n2)c1 [Compound 62]			8.30	24
FC(F)(F)c1cc(-c2nc(-c3ccncc3)no2)cc(C(F)(F)F)c1 [Compound 104]		5.46	6.58	
FC(F)(F)c1cc(Br)cc(-c2nc(-c3ccncc3)no2)c1 [Compound 106]		5.10	7.20	
CCOc1ccc(-c2nc(-c3cccc4[nH]ccc34)no2)cc1OCC [Compound 110]		6.08	9.28	
CCOc1ccc(-c2nc(-c3cccc4c3CCN4)no2)cc1OCC [Compound 123]		6.28	9.70	
CCOc1ccc(-c2nc(-c3cccc(CN(C)C)c3C)no2)cc1OCC [Compound 129]		5.28	8.39	

SMILES	EC50 (S1P1; unit μM/uM) [µM]	pEC50 (S1P3)	pEC50 (S1P1)	EC50 (S1P3) [µM]
CCOc1ccc(-c2nc(-c3cccc4c3CCN4C)no2)cc1OCC [Compound 151]		5.62	8.23	
CCOc1ccc(-c2nc(-c3cccc(CN4CCCC4)c3C)no2)cc1OCC [Compound 152]		5.68	8.22	
CCOc1ccc(-c2nc(-c3ccc4[nH]ccc4c3)no2)cc1OCC [Compound 153]		5.70	8.16	
CCOc1ccc(-c2nc(-c3ccc4c(c3)CCN4)no2)cc1OCC [Compound 154]		5.74	8.51	
CCOc1ccc(-c2nc(-c3ccnc4[nH]ccc34)no2)cc1OCC [Compound 167]		5.66	8.66	
CCOc1ccc(-c2nc(-c3cccc(CO)c3C)no2)cc1OCC [Compound 177]		6.11	9.10	
CCOc1ccc(-c2nc(-c3ccc(C)c(C)c3)no2)cc1OCC [Compound 184]		5.70	7.93	
CCOc1ccc(-c2nc(-c3ccc(CO)cc3)no2)cc1OCC [Compound 186]		6.22	8.38	
CCOc1ccc(-c2nc(-c3cccc(CO)c3)no2)cc1OCC [Compound 187]		5.82	8.15	
CCOc1ccc(-c2nc(-c3ccc(CCO)cc3)no2)cc1OCC [Compound 192]		6.16	8.96	
CCOc1ccc(-c2nc(-c3ccc(CO)cc3C)no2)cc1OCC [Compound 201]		6.15	9.30	
CCOc1ccc(-c2nc(-c3ccc(CN(C)C)c(C)c3)no2)cc1OCC [Compound 203]			7.91	10
CCOc1ccc(-c2nc(-c3ccnc(CO)c3)no2)cc1OCC [Compound 209]		6.03	9.85	
CCOc1ccc(-c2nc(-c3cccc4ccccc34)no2)cc1OCC [Compound 211]			7.57	13.5
CCOc1ccc(-c2nc(-c3ccc(CO)nc3)no2)cc1OCC [Compound 214]			7.80	13.5
CCOc1ccc(-c2nc(-c3cccc4c3CCC4N(C)C)no2)cc1OCC (centres unmarked) [Compound 217]		7.87	7.61	
CCOc1ccc(-c2nc(-c3cccc4c3CCC4N3CC[C@@H](O)C3)no2)cc1OCC (some centres unmarked) [Compound 228]		5.54	7.75	
CCOc1ccc(-c2nc(-c3cccc4c3CCN4CCO)no2)cc1OCC [Compound 234]			> 9.30	
CCOc1ccc(-c2nc(-c3ccnc(CN4CC[C@@H](O)C4)c3)no2)cc1OCC [Compound 235]			7.09	
CCOc1ccc(-c2nc(-c3ccc4[nH]cc(CNCCN(C)C)c4c3)no2)cc1OCC [Compound 238]			6.16	
CCOc1ccc(-c2nc(-c3ccc4[nH]cc(CNCCO)c4c3)no2)cc1OCC [Compound 239]			6.06	

SMILES	EC50 (S1P1; unit μM/uM) [µM]	pEC50 (S1P3)	pEC50 (S1P1)	EC50 (S1P3) [µM]
CCOc1ccc(-c2nc(-c3ccc4[nH]cc(CN(C)CCO)c4c3)no2)cc1OCC [Compound 240]			5.51	
CCOc1ccc(-c2nc(-c3ccnc(C(=O)O)c3)no2)cc1OCC [Compound 241]			7.02	
CCOc1ccc(-c2nc(-c3ccnc(C(=O)NCCO)c3)no2)cc1OCC [Compound 242]			7.58	
CCOc1ccc(-c2nc(-c3cccc4c3CCC4NCCN(CC)CC)no2)cc1OCC (centres unmarked) [Compound 243]			9.15	
CCOc1ccc(-c2nc(-c3cccc4c3CCC4N3CC[C@@H](O)C3)no2)cc1OCC (some centres unmarked) [Compound 250]			8.21	
CCOc1ccc(-c2nc(-c3cccc(CNCCO)c3C)no2)cc1OCC [Compound 251]		6.16	8.47	
CCOc1ccc(-c2nc(-c3ccc(CNCCO)cc3C)no2)cc1OCC [Compound 252]			8.00	
CCOc1ccc(-c2nc(-c3ccc4occc4c3)no2)cc1OCC [Compound 253]			7.58	
CCOc1ccc(-c2noc(-c3ccncc3)n2)cc1OCC [Compound 257]			8.14	
CCOc1ccc(-c2nc(-c3ccc4c(c3)CCN4CCCO)no2)cc1OCC [Compound 258]			9.00	
CC(C)Oc1ccc(-c2nc(-c3cccc4c3CCC4O)no2)cc1C(F)(F)F (centres unmarked) [Compound 259, 4-(5-(4-isopropoxy-3-(trifluoromethyl)phenyl)-1,2,4-oxadiazol-3-yl)-2,3-dihydro-1H-inden-1-ol]			> 9.30	
CCOc1ccc(-c2nc(-c3cccc4c3CCC4O)no2)cc1C(F)(F)F (centres unmarked) [Compound 260, 4-(5-(4-ethoxy-3-(trifluoromethyl)phenyl)-1,2,4-oxadiazol-3-yl)-2,3-dihydro-1H-inden-1-ol]			> 9.30	
CCOc1ccc(-c2nc(-c3cccc4c3CCC4O)no2)cc1C#N (centres unmarked) [Compound 262, 2-ethoxy-5-(3-(1-hydroxy-2,3-dihydro-1H-inden-4-yl)-1,2,4-oxadiazol-5-yl)benzonitrile]			> 9.30	
CC(C)Oc1ccc(-c2nc(-c3cccc4c3CCC4NCCO)no2)cc1C(F)(F)F (centres unmarked) [Compound 263, 2-(4-(5-(4-isopropoxy-3-(trifluoromethyl)phenyl)-1,2,4-oxadiazol-3-yl)-2,3-dihydro-1H-inden-1-ylamino)ethanol]			8.00	
CCOc1ccc(-c2nc(-c3cccc4c3CCC4NCCO)no2)cc1C(F)(F)F (centres unmarked) [Compound 264, 2-(4-(5-(4-ethoxy-3-(trifluoromethyl)phenyl)-1,2,4-oxadiazol-3-yl)-2,3-dihydro-1H-inden-1-ylamino)ethanol]			8.10	
CCOc1ccc(-c2nc(-c3cccc4c3CCC4O)no2)cc1[N+](=O)[O-] (centres unmarked) [Compound 266, 4-(5-(4-ethoxy-3-nitrophenyl)-1,2,4-oxadiazol-3-yl)-2,3-dihydro-1H-inden-1-ol]			6.65	
CCOc1ccc(-c2ncc(-c3ccncc3)o2)cc1OCC [Compound 268]			7.97	
CCOc1ccc(-c2cc(-c3ccncc3)no2)cc1OCC [Compound 269]			6.95	
CC(C)Oc1ccc(-c2ncc(-c3cccc4c3CCC4O)o2)cc1C#N (centres unmarked) [Compound 270]			8.60	
CC(C)Oc1ccc(-c2ncc(-c3cccc4c3CCC4NCCO)o2)cc1C#N (centres unmarked) [Compound 271]			> 9.30	
